Laboratory results from patent US7056697B2, “FabK variant” (priority 2000, dated 2006).

Test system: FabK
Assay: FabK activity assay (crotonoyl-ACP reduction, NADH oxidation monitored at 340 nm)
Format: biochemical, Streptococcus pneumoniae
Conditions: NH4+ at 100 mM; greatest activation
Protocol: FabK catalyses the reduction of enoyl-ACPs with the concommitant oxidation of NADH. Crotonoyl-ACP can be prepared as described below. The reduction of crotonoyl-ACP to butyryl-ACP can be monitored by following the change in absorbance at 340 nm as NADH is oxidised.
Assays were carried out in Costar 3696 half-area plates in a final assay volume of 150 ul on a Spectramax platereader. Substrates, NADH and crotonoyl ACP, were incubated with FabK enzyme in 100 mM N-[2-acetamido]-2 iminodiacetic acid (ADA), pH 6.5, 100 mM NH4Cl, 4% glycerol at 30° C. and the reaction monitored at 340 nm. This assaying can also be performed using crotonyl CoA, NADPH or an NADH analogue as a substrate.

## N [NH4^+]
  activation of the FabK reaction over the reaction with no monovalent cations: about 300 fold
